Assays:
[1] = system: MCF-7; test: Two-dose antiproliferative screening, SRB assay, MCF-7; assay type: cell-based; settings: Homo sapiens, MCF7, 72 h, triplicates; for inhibition at 1 µM: read-out: Growth Inhibition (%) MCF-7 1 μM Average; for inhibition at 10 µM: read-out: Growth Inhibition (%) MCF-7 10 μM Average
Experimental: (§1) MCF-7(breast adenocarcinoma), PC-3 (prostate cancer) and COLO-205 (colorectal cancer) were obtained from Nawah Scientific inc., (Mokatam, Cairo, Egypt). Cells were maintained in Dulbecco’s Modified Eagle’s media (DMEM media) supplemented with […] of streptomycin, 100 units/mL of penicillin and 10% of heat-inactivated fetal bovine serum in humidified, 5% (v/v) CO2 atmosphere at 37 °C.
(§2) Cell viability was assessed by the sulforhodamine B (SRB) assay. Aliquots of cell suspension (5 × 10^3 cells, 100 μL) were transferred into 96 well plates and incubated in complete media for 24 h. Cells were treated with another aliquot media (100 μL) containing compounds 3a–f, 4a–f, 6a–f, 7a–f, 9a–b at concentrations of 1 and 10 μM). After 72 h of drug exposure, cells were fixed by replacing media with trichloroacetic acid (TCA, 10%, 150 μL) and incubated at 4 °C for 1 h. The TCA solution was removed, and the cells were washed five times with distilled water. Aliquots of SRB solution (0.4%w/v, 70 μL) were added and incubated in a dark place at room temperature for 10 min. Plates were washed three times with 1% acetic acid and allowed to air dry overnight. Then, a solution of TRIS base and TRIS HCl (TRIS buffer, 10 mM, 150 μL) was added to dissolve protein bound SRB stain. The absorbance was measured at 540 nm using BMGLABTECH®–FLUOstar omega micro-plate reader (Ortenberg, Germany).

[2] = system: COLO-205; test: Two-dose antiproliferative screening, SRB assay, COLO-205; assay type: cell-based, human; settings: triplicates; for inhibition at 1 µM / inhibition at 10 µM: Homo sapiens, COLO 205, 72 h; for inhibition at 1 µM: read-out: Growth Inhibition (%) COLO-205 1 μM Average; for inhibition at 10 µM: read-out: Growth Inhibition (%) COLO-205 10 μM Average
Experimental: as §1, §2

[3] = system: PC-3; test: Two-dose antiproliferative screening, SRB assay, PC-3; assay type: cell-based; settings: triplicates; for inhibition at 1 µM / inhibition at 10 µM: Homo sapiens, PC-3, 72 h; for inhibition at 1 µM: read-out: Growth Inhibition (%) PC-3 1 μM Average; for inhibition at 10 µM: read-out: Growth Inhibition (%) PC-3 10 μM Average; for Growth Inhibition (%) PC-3 10 μM Average: 72 h
Experimental: as §1, §2

Structure (SMILES) | inhibition at 1 µM [1] [%] | inhibition at 10 µM [1] [%] | inhibition at 1 µM [2] [%] | inhibition at 10 µM ([2]; 10 μM) [%] | inhibition at 1 µM [3] [%] | inhibition at 10 µM [3] [%] | Growth Inhibition (%) COLO-205 10 μM Average ([2]; 10 μM, 72 h) [%] | Growth Inhibition (%) PC-3 10 μM Average [3] [%]
COc1cc(/C=C2/C(=O)Nc3ccc(F)cc32)cc(OC)c1OC [Compound 3d, (E)-5-fluoro-3-(3,4,5-trimethoxybenzylidene)indolin-2-one] | 0.98 | 3.6 | 7.01 | 11.8 | 2.02 | 1.91 | – | –
COc1cc(/C=C2/C(=O)N(Cc3ccc(Cl)cc3)c3ccccc32)cc(OC)c1OC [Compound 6b, (E)-1-(4-Chlorobenzyl)-3-(3,4,5-trimethoxybenzylidene)indolin-2-one] | 1.13 | 32.2 | 3.9 | 45.8 | 1.04 | 28.9 | – | –
COc1cc(OC)c(/C=C2/C(=O)N(Cc3ccc(F)cc3)c3cc(Cl)ccc32)c(OC)c1 [Compound 7f, (E)-6-chloro-1-(4-fluorobenzyl)-3-(2,4,6-trimethoxybenzylidene) indolin-2-one] | 10.3 | 16 | 3.33 | – | 0.75 | 7.08 | 3.97 | –
COc1cc(/C=C2/C(=O)Nc3ccccc32)cc(OC)c1OC [Compound 3a, (E)-3-(3,4,5-trimethoxybenzylidene)indolin-2-one] | 1.17 | 3.44 | 1.18 | 4.71 | 1.92 | 20.4 | – | –
COc1cc(OC)c(/C=C2/C(=O)Nc3ncccc32)c(OC)c1 [Compound 4f, (E)-3-(2,4,6-trimethoxybenzylidene)-1,3-dihydro-2H-pyrrolo[2,3-b] pyridin-2-one] | 11.5 | 65.8 | 7.64 | 63.8 | 23 | 69.1 | – | –
COc1cc(/C=C2/C(=O)N(Cc3ccc(F)cc3)c3ccccc32)cc(OC)c1OC [Compound 6c, (E)-1-(4-Fluorobenzyl)-3-(3,4,5-trimethoxybenzylidene)indolin-2-one] | 5.68 | 25 | 4.66 | 13.6 | 0.69 | 8.22 | – | –
COc1cc(OC)c(/C=C2/C(=O)N(Cc3ccccc3)c3cc(Cl)ccc32)c(OC)c1 [Compound 7d, (E)-1-benzyl-6-chloro-3-(2,4,6-trimethoxybenzylidene)indolin-2-one] | 0.49 | 40.5 | 2.38 | 15.6 | 1.47 | 19.9 | – | –
COc1cc(/C=C2/C(=O)N(Cc3ccccc3)c3ccccc32)cc(OC)c1OC [Compound 6a, (E)-1-Benzyl-3-(3,4,5-trimethoxybenzylidene)indolin-2-one] | 1.74 | 48.5 | 2.46 | 4.97 | 4.3 | 5.03 | – | –
COc1cc(/C=C2/C(=O)Nc3ncccc32)cc(OC)c1OC [Compound 3f, (E)-3-(3,4,5-trimethoxybenzylidene)-1,3-dihydro-2H-pyrrolo[2,3-b] pyridin-2-one] | 0.36 | 4.53 | 1.52 | 9.13 | 1.29 | 3.57 | – | –
COc1cc(/C=C2/C(=O)Nc3ccc(Cl)cc32)cc(OC)c1OC [Compound 3c, (E)-5-chloro-3-(3,4,5-trimethoxybenzylidene)indolin-2-one] | 1.06 | 8.56 | 2.86 | 6.41 | 1.42 | 14.3 | – | –
COc1cc(OC)c(/C=C2/C(=O)N(Cc3ccccc3)c3ccccc32)c(OC)c1 [Compound 7a, (E)-1-benzyl-3-(2,4,6-trimethoxybenzylidene)indolin-2-one] | 0.6 | 15.3 | 11.9 | 20 | 0.65 | 8.59 | – | –
COc1cc(OC)c(/C=C2/C(=O)N(Cc3ccc(Cl)cc3)c3ccccc32)c(OC)c1 [Compound 7b, (E)-1-(4-chlorobenzyl)-3-(2,4,6-trimethoxybenzylidene)indolin-2-one] | 3.81 | 5.48 | 3 | 3.33 | 1.05 | 3.15 | – | –
COc1ccc2c(c1)/C(=C\c1cc(OC)c(OC)c(OC)c1)C(=O)N2 [Compound 3e, (E)-5-methoxy-3-(3,4,5-trimethoxybenzylidene)indolin-2-one] | 21 | 65.3 | 2.34 | 18.6 | 32.9 | 52 to 72 | – | 61.38
COc1cc(/C=C2/C(=O)Nc3cc(Cl)ccc32)cc(OC)c1OC [Compound 3b, (E)-6-chloro-3-(3,4,5-trimethoxybenzylidene)indolin-2-one] | 1.14 | 41.2 | 5.7 | 32.6 | 7.69 | 39 | – | –
COc1cc(/C=C2/C(=O)N(Cc3ccccc3)c3cc(Cl)ccc32)cc(OC)c1OC [Compound 6d, (E)-1-benzyl-6-chloro-3-(3,4,5-trimethoxybenzylidene)indolin-2-one] | 0.68 | 48.4 | 2.38 | 8.68 | 4.24 | 7.34 | – | –
COc1cc(OC)c(/C=C2/C(=O)N(Cc3ccc(Cl)cc3)c3cc(Cl)ccc32)c(OC)c1 [Compound 7e, (E)-6-chloro-1-(4-chlorobenzyl)-3-(2,4,6-trimethoxybenzylidene) indolin-2-one] | 1.59 | 46.2 | 3.82 | 22.1 | 1.77 | 52 to 72 | – | 51.68
COc1cc(OC)c(/C=C2/C(=O)N(Cc3ccc(F)cc3)c3ccccc32)c(OC)c1 [Compound 7c, (E)-1-(4-fluorobenzyl)-3-(2,4,6-trimethoxybenzylidene)indolin-2-one] | 4.08 | 25.9 | 4.66 | 18.3 | 0.89 | 13.8 | – | –
